Legend:
[1] = test system: AVM-BEC; assay: Proteome Profiler Human Angiogenesis Array of AVM-BEC lysates; type: cell-based
Description: (§1) Human surgical specimens were obtained following written informed consent from patients in accordance with Declaration of Helsinki guidelines and the Institutional Review Board (HS-04B053), at Keck School of Medicine, USC. AVM-BECs were isolated from brain tissues of patients who underwent microsurgical AVM resection. Control BECs were isolated from the structurally normal […] of patients who underwent temporal lobectomy for intractable epilepsy. Endothelial cell (EC) isolation and culture were described^5,9. (Stapleton C J, Armstrong D L, Zidovetzki R, Liu C Y, Giannotta S L, Hofman F M. Thrombospondin-1 modulates the angiogenic phenotype of human cerebral arteriovenous malformation endothelial cells. Neurosurgery. 2011; 68(5):1342-1353) (Ferreira R, Santos T, Amar A, et al. Argonaute-2 promotes miR-18a entry in human brain endothelial cells. J Am Heart Assoc. 2014; 3(3):e000968) ECs were only used between passages 3-5. Experiments were performed under shear flow conditions (12 dyn/cm^2) to reproduce arterial flow^6. (Ferreira R, Santos T, Amar A, et al. MicroRNA-18a improves human cerebral arteriovenous malformation endothelial cell function. Stroke. 2014; 45(1):293-297). For hypoxic experiments, cells were cultured in a Galaxy 48R (Eppendorf) incubator at 3% O2. MicroRNAs were co-administered with Ago-2 to increase the cellular uptake of miR-18a^9 (Ferreira R, Santos T, Amar A, et al. Argonaute-2 promotes miR-18a entry in human brain endothelial cells. J Am Heart Assoc. 2014; 3(3):e000968) (FIG. 9). Methods regarding cell treatments and transfections were included in Data.
(§2) MiR-18a (hsa-miR-18a-5p, 40 nM, Dharmacon) or a scramble microRNA (40 nM, Dharmacon) in nuclease-free water was added with argonaute 2 (Ago-2, 0.4 nM, Abcam) as the microRNA carrier and stabilizer^9. (Ferreira R, Santos T, Amar A, et al. Argonaute-2 promotes miR-18a entry in human brain endothelial cells. J Am Heart Assoc. 2014; 3(3):e000968). No transfection reagent was used with miR-18a or scramble microRNA treatments. Recombinant human TSP-1 (R&D Systems) stock solution was prepared in PBS and further diluted in culture medium to be used at a final concentration of 1000 ng/mL. Cells were treated during 24 h for mRNA and 48 h for protein expression studies. NEO100 (NeOnc Technologies) stock was prepared in DMSO and used immediately or stored at −20° C.
The levels of angiogenesis-related proteins were analyzed using the Proteome Profiler™ Human Angiogenesis Array kit (R&D Systems) following the manufacturer's instructions. The protocol for western blot was published^10. (Marín-Ramos N I, Alonso D, Ortega-Gutiérrez S, et al. New inhibitors of angiogenesis with antitumor activity in vivo. J Med Chem. 2015; 58(9):3757-3766). Information about antibodies used was included in Table 1. Membranes were visualized and quantified using a C-Digit Blot scanner (Li-Cor) or a iBright CL1000 (Thermo Fisher Scientific).

[2] = test system: BEC; assay: RT-qPCR mRNA expression in control BEC; type: cell-based, human
Description: as §1, §2
The extraction and analysis of total mRNA and microRNAs were described^9,13. […] For mRNA studies, 02-Microglobulin (B2M) was measured for sample normalization. […]

[3] = test system: BEC; assay: ELISA of control BEC supernatants; type: cell-based, human
Description: as §1
Small interfering RNA transfection was performed as previously described^5. Briefly, ECs were transfected with small interfering RNA (siRNA) against ID1 or PAI-1 (Thermo Fisher Scientific), or small interfering control (Santa Cruz Biotechnology) constructs using Lipofectamine RNAiMax (Thermo Fisher Scientific) per the manufacturer's instructions. Knockdown of ID1 or PAI-1 was confirmed by quantitative real-time polymerase chain reaction as described^6 (FIG. 19). The sequences of the forward and reverse primers for ID1 and PAI-1 were included in Table 2.
Plasmid constructs pcDNA3-ALK2^WT (Addgene #80870) and pcDNA3-ALK2^Q207D (Addgene #80871) were a gift from Aristidis Moustakas^7. (Meyer B, Schaller C, Frenkel C, Ebeling B, Schramm J. Distributions of local oxygen saturation and its response to changes of mean arterial blood pressure in the cerebral cortex adjacent to arteriovenous malformations. Stroke. 1999; 30(12):2623-2630) 10^4 AVM-BEC were seeded 24 h before transfection. The plasmid vector containing the 3′ untranslated region (3′UTR) of human BMP4, pRP [Exp]-Puro-CMV>Luciferase:{hBMP4_3′UTR}, was constructed and packaged by VectorBuilder. The vector ID is VB200205-1078zdv, which can be used to retrieve detailed information about the vector on vectorbuilder.com. Transient transfections were performed with Lipofectamine RNAiMax (Thermo Fisher Scientific) according to the manufacturer's instructions. After 4 h, medium was replaced by fresh medium containing microRNA.
as §2, with “C. […]” for “C.”

[4] = control BEC supernatants, normoxia

Substance: hsa-miR-18a-5p (UAGGUGCAUCUAGUGCAGAUAG; chemistry not given here; listed as Homo sapiens) [small non-coding RNA molecule involved in post-transcriptional regulation of gene expression; Dharmacon]
- bFGF levels, decrease compared to scramble miR-treated AVM-BEC ([1]; shear flow 12 dyn/cm2, miR-18a 40 nM with Ago-2 0.4 nM, n=1): 2 fold
- IGFBP-1 levels, upregulation compared to scramble miR-treated AVM-BEC ([1]; shear flow, miR-18a 40 nM with Ago-2, n=1): 2 fold
- TSP-1 protein levels in AVM-BEC lysates ([1]; vs scramble miR, n=1): did not observe any relevant differences
- downregulation of PAI-1 ([1]; vs scramble miR, n=1): 20%
- upregulation of endothelin-1 (ET-1) ([1]; vs scramble miR, n=1): > 20%
- upregulation of pentraxin 3 (PTX3) ([1]; vs scramble miR, n=1): > 20%
- ALK1 mRNA expression ([2]; P=0.0482): decreased
- BMP4, ALK2, ALK5 and MGP mRNA expression ([2]; P>0.05): No significant differences
- HIF-1α expression ([2]; hypoxia 3% O2): remained unaltered
- HIF-1α expression ([2]; normoxia, P>0.9999): without affecting BEC
- VEGF secretion (ELISA) ([3]; BEC transfected with ALK2, P>0.9999): No significant changes
- levels of secreted PAI-1 [3, 4]: without affecting control BEC
- levels of secreted VEGF [3, 4]: without affecting control BEC
- levels of secreted VEGF ([3]; control BEC transfected with siCTL): without affecting control BEC

From patent US20230212571A1, “COMPOSITIONS AND METHODS FOR DELIVERING POLYNUCLEOTIDES” (NeOnc Technologies, Inc., priority 2020, published 2023)
